Laboratory results: publication PMC10724293, “New ruthenium-xanthoxylin complex eliminates colorectal cancer stem cells by targeting the heat shock protein 90 chaperone” (Cell Death & Disease, 2023)
“And” between values parts separate entries of the source, which are not always exact repeats. Equal values may be shown once.

How the values were obtained:
[1] = tested on: 4T1; assay: Alamar blue cytotoxicity assay; type: cell-based, mouse; conditions: 72 h, read-out: IC50 and 95%CI
Experimental: (§1) The Alamar blue assay was used to determine cell viability as previously described. Cells were seeded into 96-well plates at a density of 7 × 10^3 cells per well for adherent cells or 3 × 10^4 cells per well for suspended cells. The drug was added to each well after 24 h of incubation for adherent cells or immediately for suspended cells and incubated for an additional 72 h. […] Each well received 100 µM resazurin (Sigma-Aldrich Co. St. Louis, MO, United States) four (for cell lines) or 24 (for primary culture) h before the end of the incubation. A SpectraMax 190 Microplate Reader (Molecular Devices, Sunnyvale, CA, USA) was used to measure absorbance at 570 and 600 nm.

[2] = tested on: B16-F10; assay: Alamar blue cytotoxicity assay; type: cell-based, mouse; conditions: 72 h, read-out: IC50 and 95%CI
Experimental: as §1

[3] = tested on: HCT116 cells; assay: Colonosphere assay; type: cell-based, human
Experimental: HCT116 cells, at densities of 1.25 × 10^5 cells/ml, were cultured in 24-well low adhesion plates (Corning, USA) in serum-free DMEM-F12 supplemented with 20 ng/ml bFGF (PeproTech, USA), 20 ng/ml EGF (PeproTech, USA), and B27 supplement (Invitrogen, Carlsbad, CA, USA). On the following day, the cells were subjected to drug concentrations of 20, 10, 5, 2.5, and 1.25 μM. The cells were photographed using an optical microscope after 0, 24, 48, and 72 h of incubation (Leica, DMI8). Furthermore, 10 µM RXC-treated cells were stained with acridine orange/PI and analyzed by confocal microscopy or stained with anti-CD133 antibody plus YO-PRO-1 and analyzed by flow cytometry.

[4] = tested on: HCT116 cells; assay: qPCR array of human cancer drug target genes; type: cell-based; set-up: key to RQ, gene BCL2 / RQ, gene IGF1R / RQ, gene KDR / RQ, gene EGFR / RQ, gene CTSB / RQ, gene RHOA / RQ, gene ESR1 / RQ, gene MDM2 / RQ, gene MDM4 / RQ, gene TOP2A / RQ, gene TOP2B / RQ, gene ATF2 / RQ, gene NFKB1 / RQ, gene TP53 / RQ, gene AURKC / RQ, gene CDC25A / RQ, gene CDK1 / RQ, gene CDK2 / RQ, gene CDK5 / RQ, gene CDK8 / RQ, gene NTN3 / RQ, gene HRAS / RQ, gene KRAS: 2^−ΔΔCT relative quantification vs DMSO control (calibrator = 1); conditions: 10 µM, 12 h; CTL = 1.0
Experimental: Total RNA was isolated using the RNeasy Plus Mini Kit (Qiagen; Hilden, Germany) according to the manufacturer’s instructions. The RNA was tested for purity and quantified using a NanoDrop® 1000 spectrophotometer (Thermo Fisher Scientific, Waltham, Massachusetts, USA). The Superscript VILOTM Kit was used for RNA reverse transcription (Invitrogen Corporation; Waltham, MA, USA). TaqMan® array human cancer drug targets 96-well plate, fast (ID RPRWENH, Applied BiosystemsTM, Foster City, CA, USA) was used for gene expression quantification by qPCR. The reactions were carried out in an ABI ViiA7 system (Applied BiosystemsTM).
The cycle conditions were 2 min at 50 °C, 10 min at 95 °C, and 40 cycles of 15 s at 95 °C and 1 min at 60 °C. All experiments were carried out in DNase/RNase-free environments. The 2^−ΔΔCT method was used to calculate the relative quantification (RQ) of mRNA expression using Gene Expression SuiteTM Software (Applied BiosystemsTM), and cells treated with the negative control (0.2% DMSO) served as a calibrator. The RQs of the reference genes HPRT1, TFRC and YWHAZ were used to normalize the reactions.

cis-[Ru(phen)2(xant)](PF6) [RXC]
IC50 [1]: 9.1 µM | IC50 [2]: 2580 nM | HCT116 CD133-positive cells in colonospheres ([3]; 10 μM, 24 h, control 47.8%): 19.5% | colonosphere formation ([3]; 1.25-20 μM, 24, 48, 72 h): reduced colonosphere formation | RQ, gene ABCC1 [4]: 0.777 | RQ, gene AKT1 [4]: 0.624 | RQ, gene AKT2 [4]: 0.896 | RQ, gene ATF2 [4]: 0.856 | RQ, gene AURKA [4]: 0.343 | RQ, gene AURKB [4]: 0.562 | RQ, gene AURKC [4]: 0.498 | RQ, gene BCL2 [4]: 0.944 | RQ, gene BIRC5 [4]: 0.499 | RQ, gene CDC25A [4]: 1.174 | RQ, gene CDK1 [4]: 1.021 | RQ, gene CDK2 [4]: 1.057 | RQ, gene CDK4 [4]: 1.065 | RQ, gene CDK5 [4]: 0.446 | RQ, gene CDK7 [4]: 1.621 | RQ, gene CDK8 [4]: 0.943 | RQ, gene CDK9 [4]: 0.986 | RQ, gene CTSB [4]: 1.307 | RQ, gene CTSD [4]: 0.826 | RQ, gene CTSL [4]: 1.073 | RQ, gene CTSS [4]: 0.500 | RQ, gene EGFR [4]: 1.135 | RQ, gene ERBB2 [4]: 0.312 | RQ, gene ERBB3 [4]: 0.814 | RQ, gene ESR1 [4]: 1.523 | RQ, gene ESR2 [4]: 1.673 | RQ, gene FLT4 [4]: 3.841 | RQ, gene GRB2 [4]: 1.220 | RQ, gene GSTP1 [4]: 0.609 | RQ, gene HDAC1 [4]: 0.509 | RQ, gene HDAC2 [4]: 0.509 | RQ, gene HDAC3 [4]: 0.879 | RQ, gene HDAC4 [4]: 1.233 | RQ, gene HDAC6 [4]: 0.969 | RQ, gene HDAC7 [4]: 0.975 | RQ, gene HDAC8 [4]: 0.826 | RQ, gene HDAC11 [4]: 1.433 | RQ, gene HIF1A [4]: 0.663 | RQ, gene HRAS [4]: 1.867 | RQ, gene HSP90AA1 [4]: 0.353 and 0.35 | RQ, gene HSP90B1 [4]: 0.285 and 0.28 | RQ, gene IGF1R [4]: 1.146 | RQ, gene IRF5 [4]: 1.472 | RQ, gene KDR [4]: 0.896 | RQ, gene KRAS [4]: 2.847 | RQ, gene MDM2 [4]: 2.327 | RQ, gene MDM4 [4]: 1.960 | RQ, gene MTOR [4]: 0.595 | RQ, gene NFKB1 [4]: 1.055 | RQ, gene NRAS [4]: 0.893 | RQ, gene NTN3 [4]: 2.364 | RQ, gene PARP1 [4]: 0.485 | RQ, gene PARP4 [4]: 0.791 | RQ, gene PDGFRB [4]: 2.249 | RQ, gene PIK3C2A [4]: 1.177 | RQ, gene PIK3C3 [4]: 1.485 | RQ, gene PIK3CA [4]: 0.956 | RQ, gene PLK1 [4]: 0.890 | RQ, gene PLK2 [4]: 1.023 | RQ, gene PLK3 [4]: 1.749 | RQ, gene PLK4 [4]: 1.081 | RQ, gene PRKCA [4]: 0.567 | RQ, gene PRKCB [4]: 0.993 | RQ, gene PRKCD [4]: 1.557 | RQ, gene PRKCE [4]: 1.461 | RQ, gene PTGS2 [4]: 1.461 | RQ, gene RHOA [4]: 0.937 | RQ, gene RHOB [4]: 1.762 | RQ, gene TERT [4]: 0.866 | RQ, gene TNKS [4]: 2.951 | RQ, gene TOP2A [4]: 0.769 | RQ, gene TOP2B [4]: 1.055 | RQ, gene TP53 [4]: 1.058 | RQ, gene TXN [4]: 1.184 | RQ, gene TXNRD1 [4]: 3.038
